Source: PubChem BioAssay AID1845206 (Molecular Pharmacology Branch, DTP, NCI, 2023)

Test system: NCI-H1618 multicellular tumor spheroid viability
Assay: Anticancer human tumor NCI-H1618 cell line growth inhibition;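 also: spheroids exposed to agents for 7 days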
Details: for IC50: curve of first compound; for viability, T/C: stronger effect = lower value
In short: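 Complex tumor spheroids combined malignant cells with endothelial cells and mesenchymal stem cells. DNA-damaging drugs and DNA repair inhibitors were tested alone and in combination, at half-log dilutions down from clinical Cmax (top 10 microM if Cmax unknown), 0.25% DMSO final.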

[1] = second compound 30 pM, first compound 0.00949 µM
[2] = second compound 30 pM, first compound 0.03 µM
[3] = second compound 30 pM, first compound 0.0949 µM
[4] = second compound 30 pM, first compound 0.3 µM
[5] = second compound 30 pM, first compound 0.949 µM
[6] = second compound 30 pM, first compound 3 µM
[7] = second compound 94.9 pM, first compound 0.00949 µM
[8] = second compound 94.9 pM, first compound 0.03 µM
[9] = second compound 94.9 pM, first compound 0.0949 µM
[10] = second compound 94.9 pM, first compound 0.3 µM
[11] = second compound 94.9 pM, first compound 0.949 µM
[12] = second compound 94.9 pM, first compound 3 µM
[13] = second compound 0.0003 µM, first compound 0.00949 µM
[14] = second compound 0.0003 µM, first compound 0.03 µM
[15] = second compound 0.0003 µM, first compound 0.0949 µM
[16] = second compound 0.0003 µM, first compound 0.3 µM
[17] = second compound 0.0003 µM, first compound 0.949 µM
[18] = second compound 0.0003 µM, first compound 3 µM
[19] = second compound 0.000949 µM, first compound 0.00949 µM
[20] = second compound 0.000949 µM, first compound 0.03 µM
[21] = second compound 0.000949 µM, first compound 0.0949 µM
[22] = second compound 0.000949 µM, first compound 0.3 µM
[23] = second compound 0.000949 µM, first compound 0.949 µM
[24] = second compound 0.000949 µM, first compound 3 µM
[25] = second compound 0.003 µM, first compound 0.00949 µM
[26] = second compound 0.003 µM, first compound 0.03 µM
[27] = second compound 0.003 µM, first compound 0.0949 µM
[28] = second compound 0.003 µM, first compound 0.3 µM
[29] = second compound 0.003 µM, first compound 0.949 µM
[30] = second compound 0.003 µM, first compound 3 µM

Structure (SMILES) | IC50 (second compound 30 pM) [µM] | IC50 (second compound 94.9 pM) [µM] | IC50 (second compound 0.0003 µM) [µM] | IC50 (second compound 0.000949 µM) [µM] | IC50 (second compound 0.003 µM) [µM] | viability, T/C [3] [%] | viability, T/C [4] [%] | viability, T/C [5] [%] | viability, T/C [6] [%] | viability, T/C [9] [%] | viability, T/C [10] [%] | viability, T/C [11] [%] | viability, T/C [12] [%] | viability, T/C [15] [%] | viability, T/C [16] [%] | viability, T/C [17] [%] | viability, T/C [18] [%] | viability, T/C [21] [%] | viability, T/C [22] [%] | viability, T/C [23] [%] | further results
CNCc1ccc(-c2cc(-c3nc(-c4ccc(S(=O)(=O)C(C)C)cc4)cnc3N)on2)cc1 + COc1cc2c(cc1O)CCNC21CSC2c3c(OC(C)=O)c(C)c4c(c3C(COC1=O)N1C(O)C3Cc5cc(C)c(OC)c(O)c5C(C21)N3C)OCO4 | 0.224 | 0.13 | < 0.00949 | < 0.00949 | < 0.00949 | 110 | 31.5 | 5.25 | 3.91 | 59.5 | 22.3 | 2.88 | 2.64 | 58.8 | 12.6 | 2.49 | 4.13 | 6.24 | 3.07 | 3.69 | viability, T/C [1]: 103%; viability, T/C [2]: 100%; viability, T/C [7]: 98.5%; viability, T/C [8]: 93.6%; viability, T/C [13]: 11.2%; viability, T/C [14]: 17.8%; viability, T/C [19]: 3.91%; viability, T/C [20]: 15.3%; viability, T/C [24]: 2.71%; viability, T/C [25]: 3.93%; viability, T/C [26]: 6.21%; viability, T/C [27]: 4.41%; viability, T/C [28]: 3.43%; viability, T/C [29]: 2.55%; viability, T/C [30]: 0.78%
Cn1ncnc1[C@H]1c2n[nH]c(=O)c3cc(F)cc(c23)N[C@@H]1c1ccc(F)cc1 + COc1cc2c(cc1O)CCNC21CSC2c3c(OC(C)=O)c(C)c4c(c3C(COC1=O)N1C(O)C3Cc5cc(C)c(OC)c(O)c5C(C21)N3C)OCO4 | 0.0454 | < 0.00949 | < 0.00949 | < 0.00949 | < 0.00949 | 53 | 10.2 | 2.52 | 3.76 | 3.24 | 2.22 | 2.54 | 4.25 | 2.76 | 2.88 | 3.67 | 2.53 | 3.71 | 4.08 | 3.69 | viability, T/C [1]: 95.5%; viability, T/C [2]: 46.9%; viability, T/C [7]: 44.3%; viability, T/C [8]: 37.8%; viability, T/C [13]: 10.6%; viability, T/C [14]: 5.28%; viability, T/C [19]: 4.52%; viability, T/C [20]: 4.93%; viability, T/C [24]: 4.06%; viability, T/C [25]: 2.91%; viability, T/C [26]: 4.29%; viability, T/C [27]: 5.46%; viability, T/C [28]: 2.85%; viability, T/C [29]: 3.44%; viability, T/C [30]: 2.38%
O=C(c1cc(Cc2n[nH]c(=O)c3ccccc23)ccc1F)N1CCN(C(=O)C2CC2)CC1 + COc1cc2c(cc1O)CCNC21CSC2c3c(OC(C)=O)c(C)c4c(c3C(COC1=O)N1C(O)C3Cc5cc(C)c(OC)c(O)c5C(C21)N3C)OCO4 | 5.7 | 1.83 | < 0.0949 | < 0.0949 | < 0.0949 | 103 | 97.2 | 98.2 | 88.1 | 85.7 | 76.1 | 96.7 | 22.7 | 11.3 | 2.62 | 33.6 | 22 | 4.82 | 3.59 | 4.37 | viability, T/C (second compound 30 pM, first compound 9.49 µM): 19.8%; viability, T/C (second compound 30 pM, first compound 30 µM): 5.66%; viability, T/C (second compound 94.9 pM, first compound 9.49 µM): 11.6%; viability, T/C (second compound 94.9 pM, first compound 30 µM): 5.96%; viability, T/C (second compound 0.0003 µM, first compound 9.49 µM): 3.44%; viability, T/C (second compound 0.0003 µM, first compound 30 µM): 6.61%; viability, T/C [24]: 3.86%; viability, T/C (second compound 0.000949 µM, first compound 9.49 µM): 3.51%; viability, T/C (second compound 0.000949 µM, first compound 30 µM): 3.9%; viability, T/C [27]: 2.74%; viability, T/C [28]: 2.65%; viability, T/C [29]: 3.06%; viability, T/C [30]: 3.24%; viability, T/C (second compound 0.003 µM, first compound 9.49 µM): 3.55%; viability, T/C (second compound 0.003 µM, first compound 30 µM): 3.23%
